Data on five compounds can be found in patent EP0860438B1, “Fluorine-containing diphenyl acrylamide antimicrobial agents” (Shenyang Research Institute of Chemical Industry, priority 1997, dated 1998).

Where two headings read alike, the source gives them in different places.

The subject of assay [1] is cucumber downy mildew. The assay is described as follows: Indoor comparison with currently available antimicrobial agents, protective effect (Example 12). As to conditions: seedling of yellow melon. It counts as in vivo, Pseudoperonospora cubensis.
The test system of assay [2] is cucumber downy mildew. The assay is described as follows: Indoor comparison with currently available antimicrobial agents, therapeutic effect (Example 12). Type of assay: in vivo, Pseudoperonospora cubensis. Particulars: seedling of yellow melon.
The subject of assay [3] is cucumber downy mildew (Pseudoperonospora cubensis). Nature of the assay: Test for inhibition of spore germination in cucumber downy mildew. It counts as cell-based.
Assay [4] relates to cucumber downy mildew. Nature of the assay: Field protection test against cucumber downy mildew (Example 13). Also on record: Disease index: scale not given here. Type of assay: in vivo, Pseudoperonospora cubensis. The protocol:
Protective action (field test).
Field protection test against cucumber downy mildew was carried out in the farm at a village near Shenyang City. Concentration of the Compound 1 (20% wettable powder) was set at 200, 400 and 600 ppm. Concentration of Previcur (66.5% hydrate ) which was used as the control, was set at 800, 1000 and 1200 ppm. And, a blank control was set separately also. Each treatment was run 4 times. Samples were taken for examination. […] First examination of protective effect was made on April 22. The second examination of protective effect was made on April 29, and the third examinatnion of protective effect was made on May 5.

Assay [5] deals with cucumber downy mildew. Nature of the assay: Field therapeutic test against cucumber downy mildew (Example 14). It counts as in vivo, Pseudoperonospora cubensis. As to conditions: three treatments, examined on June 3. The protocol: Therapeutic effect (field test).
Field therapeutic test of the compound 1 against cucumber downy mildew was carried out in a farm at a village near Shenyang City.
Concentration of the Compound 1 (20% wettable powder) was set at 100, 200 and 300 ppm. Chlor 1500 ppm was used as the control, and blank control was set separately also. Each treatment was repeated three times. First treatment was made on May 13, second treatment was made on May 20, and third treatment was made on May 27, and protective effect was examined on June 3.

For another assay, the system named is late blight of tomato. It counts as in vivo. As to conditions: three treatments, examined on June 20, field.
Assay [6] has as its system cucumber downy mildew. The assay is described as follows: Indoor protection test against cucumber downy mildew (Example 10). Particulars: inoculated 24 hours after treatment, examined a week later.
Protocol: (§1) Concentration of test Compound 1 (content was 9% in emulsion oil) was set at 250, 200, 150, 100 and 75 ppm. Dimethomorph (American Cyanamid) 150 ppm was used as the control. Healthy seedling of yellow melon was selected for use, and test was run three times. For protection test, treatment was carried out on September 17, 1995, and they were inoculated 24 hours later. For the therapeutic test, inoculation was made on September 18, and then they were treated 24 hours later. Examination was made a week later, and results were recorded in 9 grades, and disease index and protection effect were calculated.
The test system of assay [7] is cucumber downy mildew. The assay is described as follows: Indoor therapeutic test against cucumber downy mildew (Example 10). As to conditions: treated 24 hours after inoculation, examined a week later.
Protocol: as §1
Assay [8] deals with Downy mildew. The assay is described as follows: Indoor comparison with Dimethomorph, test for therapy (Example 11). Particulars: seedling of yellow melon, 2 - 3 leaf stage.
Description: (§2) Test was divided into test for therapy and test for protection. Concentration of two chemicals (Compound 1 and Dimethomorph) was set at 150 and 100 ppm, and each treatment was run three times. A blank control was set separately. Samples were selected from seedling of yellow melon in the 2 - 3 leaf stage. Method of treatment and study was the same as before.
Assay [9] concerns Downy mildew. Nature of the assay: Indoor comparison with Dimethomorph, test for protection (Example 11). Particulars: seedling of yellow melon, 2 - 3 leaf stage.
Description: as §2
The mark [10] stands for this setting: Pseudoperonospora cubensis, 24 h, read-out: % Inhibition of spore.

Consider `[Al]#[P]` [Aluminium phosphide, aluminium phosphide, reference compound], for which the “Protective effect/preventive (%)control” value with cucumber downy mildew [1] (1000 ppm) came out at 75.0%. Also, the “Therapeutic effect (%)control” value with cucumber downy mildew [2] (1000 ppm) is 40.0%.

The inhibition is the drop in the measured response relative to a control, in per cent. On to `COc1ccc(/C(=C\C(=O)N2CCOCC2)c2ccc(F)cc2)cc1OC` [Compound 1], for which the “% Spore germination” value is 23.1% in assay [3] (25 ppm, 25°C, after 24 hours); 4.3% in assay [3] (50 ppm, 25°C, after 24 hours); 1.6% in [3] (100 ppm, 25°C, after 24 hours). The “Number of spores germinated” value in assay [3] (25 ppm, 25°C, after 24 hours) is 198; in assay [3] (50 ppm, 25°C, after 24 hours), 45; in [3] (100 ppm, 25°C, after 24 hours), 17. Also, the “Number of ungerminated spores” value in [3] (25 ppm, 25°C, after 24 hours) came to 660; in [3] (50 ppm, 25°C, after 24 hours), 990; in assay [3] (100 ppm, 25°C, after 24 hours), 1044. Moreover, the inhibition at 25 ppm in [3] (setting [10]) worked out at 65.2%. Also, the inhibition at 50 ppm in assay [3] (setting [10]) came out at 93.5%. Besides, in assay [3] (setting [10]), the inhibition at 100 ppm was found to be 97.6%. Moreover, the “Protective effect/preventive (%)control” value was found to be 40.0% with cucumber downy mildew [1] (25 ppm); 60.0% in the assay with cucumber downy mildew [1] (50 ppm); 75.0% in the assay with cucumber downy mildew [1] (75 ppm); 90.0% in the assay on cucumber downy mildew [1] (100 ppm); 100.0% in the assay with cucumber downy mildew [1] (200 ppm). In addition, the “Therapeutic effect (%)control” value in the assay with cucumber downy mildew [2] (25 ppm) is recorded as 0.0%; in the assay with cucumber downy mildew [2] (50 ppm) it was 40.0%; with cucumber downy mildew [2] (75 ppm) it was 60.0%; in the assay on cucumber downy mildew [2] (100 ppm), 75.0%; in the assay on cucumber downy mildew [2] (200 ppm), 90.0%; in the assay on Downy mildew [8] (100 ppm) it was 63%. For the same compound, the “Therapeutic effect (%)control” value with Downy mildew [8] (150 ppm) worked out at 74%. In addition, the Disease index in the assay with cucumber downy mildew [4] (200 ppm, April 22) is listed as 0; in the assay with cucumber downy mildew [4] (200 ppm, April 29), 0; in the assay with cucumber downy mildew [4] (200 ppm, May 5), 0.03; with cucumber downy mildew [4] (400 ppm, April 22), 0; in the assay on cucumber downy mildew [4] (400 ppm, April 29) it was 0; in the assay with cucumber downy mildew [4] (400 ppm, May 5), 0. The Disease index in the assay with cucumber downy mildew [4] (600 ppm, April 22) is recorded as 0; with cucumber downy mildew [4] (600 ppm, April 29) it was 0; in the assay with cucumber downy mildew [4] (600 ppm, May 5), 0; with cucumber downy mildew [5] (100 ppm) it was 0.049; in the assay with cucumber downy mildew [5] (200 ppm) it was 0.011; with cucumber downy mildew [5] (300 ppm), 0. The Disease index in the assay with late blight of tomato (200 ppm) is reported as 5.56; with late blight of tomato (400 ppm), 2.59; with late blight of tomato (600 ppm), 2.22. In addition, the “Protective (%)control” value with cucumber downy mildew [4] (200 ppm, April 22) is 100%; in the assay on cucumber downy mildew [4] (200 ppm, April 29), 100%; in the assay on cucumber downy mildew [4] (200 ppm, May 5), 97.0%; in the assay on cucumber downy mildew [4] (400 ppm, April 22), 100%; in the assay with cucumber downy mildew [4] (400 ppm, April 29), 100%; in the assay with cucumber downy mildew [4] (400 ppm, May 5), 100%. Moreover, the “Protective (%)control” value was 100% with cucumber downy mildew [4] (600 ppm, April 22); 100% with cucumber downy mildew [4] (600 ppm, April 29); 100% in the assay on cucumber downy mildew [4] (600 ppm, May 5); 80.9% with late blight of tomato (200 ppm); 91.1% with late blight of tomato (400 ppm); 94.9% with late blight of tomato (600 ppm). The “Protective effect (%)control” value in the assay with cucumber downy mildew [5] (100 ppm) was 88.4%; in the assay on cucumber downy mildew [5] (200 ppm), 97.4%; in the assay with cucumber downy mildew [5] (300 ppm), 100%; with Downy mildew [9] (100 ppm) it was 93%; with Downy mildew [9] (150 ppm) it was 95%. For the same compound, the “Protection (%)control” value with cucumber downy mildew [6] (75 ppm) was determined as 92.5%; in the assay with cucumber downy mildew [6] (100 ppm) it was 100%; with cucumber downy mildew [6] (150 ppm), 100%; with cucumber downy mildew [6] (200 ppm), 100%; in the assay on cucumber downy mildew [6] (250 ppm), 100%. In addition, the “Protection Disease index” value in the assay with cucumber downy mildew [6] (75 ppm) was 0.03; in the assay on cucumber downy mildew [6] (100 ppm), 0; in the assay on cucumber downy mildew [6] (150 ppm), 0; in the assay on cucumber downy mildew [6] (200 ppm), 0; in the assay on cucumber downy mildew [6] (250 ppm), 0. The “Therapeutic (%)control” value in the assay on cucumber downy mildew [7] (75 ppm) worked out at 78.8%; with cucumber downy mildew [7] (100 ppm) it was 84.6%; in the assay with cucumber downy mildew [7] (150 ppm), 100%; in the assay with cucumber downy mildew [7] (200 ppm) it was 98.1%; with cucumber downy mildew [7] (250 ppm) it was 100%. For the same compound, the “Therapeutic Disease index” value is listed as 0.11 in the assay on cucumber downy mildew [7] (75 ppm); 0.08 in the assay with cucumber downy mildew [7] (100 ppm); 0 in the assay with cucumber downy mildew [7] (150 ppm); 0.01 in the assay on cucumber downy mildew [7] (200 ppm); 0 in the assay on cucumber downy mildew [7] (250 ppm). The “Therapeutic effect Disease index” value in the assay with Downy mildew [8] (100 ppm) amounted to 0.37; in the assay on Downy mildew [8] (150 ppm), 0.26. Besides, the “Protective effect Disease index” value with Downy mildew [9] (100 ppm) is listed as 0.07; with Downy mildew [9] (150 ppm), 0.05.

On to `COc1ccc(C(=CC(=O)N2CCOCC2)c2ccc(Cl)cc2)cc1OC` [Dimethomorph, reference compound], for which, in [3] (50 ppm, 25°C, after 24 hours), the “% Spore germination” value was 38.2%, the “Number of spores germinated” value was determined as 208 and the “Number of ungerminated spores” value was 336. The inhibition at 50 ppm in [3] (Pseudoperonospora cubensis, 50 ppm, 25°C, after 24 hours, read-out: % Inhibition of spore) came out at 42.5%. In the assay with cucumber downy mildew [6] (150 ppm), the “Protection (%)control” value came out at 100% and the “Protection Disease index” value came out at 0. For the same compound, in the assay with cucumber downy mildew [7] (150 ppm), the “Therapeutic (%)control” value amounted to 63.5% and the “Therapeutic Disease index” value was found to be 0.19. Also, in the assay with Downy mildew [8] (100 ppm), the “Therapeutic effect (%)control” value worked out at 2% and the “Therapeutic effect Disease index” value is 0.98. Besides, in the assay on Downy mildew [8] (150 ppm), the “Therapeutic effect (%)control” value came to 24% and the “Therapeutic effect Disease index” value is on record as 0.76. Further, in the assay on Downy mildew [9] (100 ppm), the “Protective effect (%)control” value is reported as 61% and the “Protective effect Disease index” value stood at 0.39. In addition, in the assay with Downy mildew [9] (150 ppm), the “Protective effect (%)control” value was 79% and the “Protective effect Disease index” value is 0.21.

On to `COCC(=O)N(c1c(C)cccc1C)C(C)C(=O)OC` (stereo not drawn) [metalaxyl, reference compound], for which, in the assay on cucumber downy mildew [1] (500 ppm), the “Protective effect/preventive (%)control” value worked out at 60.0%. Besides, the “Therapeutic effect (%)control” value with cucumber downy mildew [2] (500 ppm) is recorded as 40.0%.

With `N#Cc1c(Cl)c(Cl)c(Cl)c(C#N)c1Cl` [Chlorothalonil, reference compound], in the assay on cucumber downy mildew [1] (1000 ppm), the “Protective effect/preventive (%)control” value was found to be 90.0%. Also, in the assay with cucumber downy mildew [2] (1000 ppm), the “Therapeutic effect (%)control” value was 75.0%.
